Like-named read-outs stand apart in the source and are kept apart here.
Columns and labels:
transferrin receptors = experiment: regulation of transferrin receptors on drug-sensitive and drug-resistant cancer cells; assay type: cell-based; conditions: more on drug-resistant than on drug-sensitive cells
[1] = test system: drug-sensitive cancer cells; experiment: viability of drug-sensitive cancer cells; assay type: cell-based; conditions: after 48 hours in a given concentration
Source text: (§1) In order to test the relationship between calcium and transferrin receptors, the effect of calcium channel inhibitors on the regulation of transferrin receptors was studied in drug-sensitive and drug-resistant cancer cells. […]. […] The addition of both iron and calcium channel blockers had no effect on cell viability.
(§2) In light of the above findings, another series of experiments were done to determine whether the restriction of iron by deferoxamine had differential effects on drug-sensitive and drug-resistant cancer cells.

[2] = test system: drug-resistant cancer cells; experiment: viability of drug-resistant cancer cells; assay type: cell-based; conditions: after 48 hours in a given concentration
Source text: as §1, §2

[3] = test system: doxorubicin-resistant cancer cells; conditions: cited from earlier work
advanced ovarian cancer = experiment: unpublished clinical study of 23 patients with advanced ovarian cancer; assay type: in vivo, human; conditions: equivalent to 1 mg doxorubicin per day, days 15 through 19 of monthly cycles; time between diagnosis and randomization 18 months; vs placebo
Procedure: There is an unpublished clinical study of 23 patients with advanced ovarian cancer who were randomized into test (12 patients) and placebo (11 patients) groups. The test group received transferrin-doxorubicin conjugates equivalent to 1 mg doxorubicin per day on days 15 through 19 of monthly treatment cycles.

human mesothelioma cells = conditions: nude mice, compared to animals treated only with doxorubicin; cited from earlier work
[4] = test system: metastatic disease from a sarcoma
[5] = test system: leukemic cells in peripheral blood; conditions: cited from earlier work

## [Cl][Cd][Cl] [CdCl2, reference compound]
Transferrin receptors
  regulation of transferrin receptors by calcium channel blockers or iron: down-regulation of receptors

## CC(=O)N(O)CCCCCNC(=O)CCC(=O)N(O)CCCCCNC(=O)CCC(=O)N(O)CCCCCN [deferoxamine]
[1]
  viability: 93%
[2]
  viability (cells alive): 16%

## COc1cccc2c1C(=O)c1c(O)c3c(c(O)c1C2=O)C[C@@](O)(C(=O)CO)C[C@@H]3O[C@H]1C[C@H](N)[C@H](O)[C@H](C)O1 [doxorubicin, reference compound]
[3]
  killing of drug-resistant cancer cells: not killed by 10-fold higher concentrations

## transferrin-bound iron: iron bound to transferrin
Transferrin receptors
  regulation of transferrin receptors by calcium channel blockers or iron: down-regulated receptors much more on drug-resistant cells

## transferrin-doxorubicin conjugates
Advanced ovarian cancer
  Cox regression estimates of survival rates: significant difference
[3]
  killing of drug-resistant cancer cells: effectively kill multi-drug resistant cells
[3]; listed as doxorubicin conjugates of transferrin
  killing of drug-resistant cancer cells: kill doxorubicin-resistant cancer cells
Human mesothelioma cells
  survival: significantly prolonging life
[4]; by January
  radiological evidence of tumor: no radiological evidence of tumor
[4]; treatment begun August 2000, by November
  metastatic lesions of the lungs: substantially cleared of metastatic lesions
[5]; 7 acute leukemia patients, 1 mg/day intravenously for 5 days
  toxic effects: no toxic effects
[5]; 7 patients, within 10-days following therapy
  decrease of the number of leukemic cells in peripheral blood: 86%
[5]; before and after treatment
  extension of disease by bone marrow biopsies: no extension of disease

Source: patent US7417023B2, “Targeted delivery of bioaffecting compounds for the treatment of cancer” (Faulk Pharmaceuticals, Inc., priority 2001, dated 2008)
